The species named for data set [1] is Homo sapiens. As to the kind of experiment: Selectivity index, ratio of IC50 for recombinant human MAO-A to recombinant human MAO-B.
The target of data set [2] is T1, Amine oxidase [flavin-containing] B (Homo sapiens, UniProt P27338).
T1 sequence (P27338 whole entry): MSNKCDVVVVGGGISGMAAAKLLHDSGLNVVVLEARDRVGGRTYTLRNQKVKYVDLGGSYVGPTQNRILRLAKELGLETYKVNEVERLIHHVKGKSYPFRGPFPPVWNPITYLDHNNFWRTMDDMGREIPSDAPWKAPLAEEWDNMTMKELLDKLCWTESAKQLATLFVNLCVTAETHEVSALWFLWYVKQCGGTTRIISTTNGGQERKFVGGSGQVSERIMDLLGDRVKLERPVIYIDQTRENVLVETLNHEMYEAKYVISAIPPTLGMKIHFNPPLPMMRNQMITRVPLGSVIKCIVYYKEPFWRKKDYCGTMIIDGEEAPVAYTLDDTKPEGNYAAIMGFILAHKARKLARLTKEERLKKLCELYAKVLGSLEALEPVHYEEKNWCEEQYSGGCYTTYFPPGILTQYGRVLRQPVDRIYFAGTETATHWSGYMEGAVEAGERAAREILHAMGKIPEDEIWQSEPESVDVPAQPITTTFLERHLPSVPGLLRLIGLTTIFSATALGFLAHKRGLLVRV
Description: Inhibition of recombinant human MAO-B after 20 mins using 50 uM kynuramine as substrate by fluorescence spectrophotometry

Data set [3] addresses T2, Amine oxidase [flavin-containing] A (Homo sapiens, UniProt P21397).
T2 sequence (P21397 whole entry): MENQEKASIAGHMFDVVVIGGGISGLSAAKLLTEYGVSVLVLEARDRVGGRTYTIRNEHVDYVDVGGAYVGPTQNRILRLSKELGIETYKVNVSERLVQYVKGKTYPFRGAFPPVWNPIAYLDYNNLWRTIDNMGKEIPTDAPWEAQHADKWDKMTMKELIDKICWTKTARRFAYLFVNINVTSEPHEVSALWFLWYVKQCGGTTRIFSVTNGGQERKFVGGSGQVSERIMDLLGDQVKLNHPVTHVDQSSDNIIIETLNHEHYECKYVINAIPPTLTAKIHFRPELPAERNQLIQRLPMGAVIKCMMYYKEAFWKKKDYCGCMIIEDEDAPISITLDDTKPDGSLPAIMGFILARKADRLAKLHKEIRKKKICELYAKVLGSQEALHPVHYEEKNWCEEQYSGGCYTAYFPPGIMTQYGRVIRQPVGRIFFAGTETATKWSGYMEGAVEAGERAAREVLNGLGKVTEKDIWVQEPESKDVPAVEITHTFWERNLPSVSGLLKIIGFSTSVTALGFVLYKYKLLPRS
Description: Inhibition of recombinant human MAO-A after 20 mins using 50 uM kynuramine as substrate by fluorescence spectrophotometry

Data set [4] can be described thus: Lipophilicity, logP of the compound by shake-flask method. Format: physicochemical. The following applies: octanol/water.
The target in data set [5] is T1, Amine oxidase [flavin-containing] B. As to the kind of experiment: Inhibition of recombinant human MAO-B pretreated with compound for 15 mins followed by addition of 50 uM kynuramine as substrate by Michaelis-Menten method.
The target in data set [6] is T2, Amine oxidase [flavin-containing] A. Description: Inhibition of recombinant human MAO-A activity pretreated with compound for 15 mins followed by addition of 50 uM kynuramine as substrate by Michaelis-Menten method.
Data set [7] addresses T1, Amine oxidase [flavin-containing] B. Description: Competition inhibition of recombinant human MAO-B pretreated with compound for 15 mins followed by addition of 50 uM kynuramine as substrate by Lineweaver-Burk plot method.
Data set [8] addresses T2, Amine oxidase [flavin-containing] A. Description: Competition inhibition of recombinant human MAO-A pretreated with compound for 15 mins followed by addition of 50 uM kynuramine as substrate by Lineweaver-Burk plot method.
Data set [9] shares this target. Description: Reversible inhibition of recombinant human MAO-A assessed as enzyme activity recovered pretreated with compound for 15 mins followed by addition of 50 uM kynuramine as substrate measured after 24 hrs by dialysis. The arrangement: scale not given: the % may be the effect or the level left.
Data set [10] addresses T1, Amine oxidase [flavin-containing] B. Description: Inhibition of recombinant human MAO-B assessed as enzyme activity pretreated with compound for 15 mins followed by addition of 50 uM kynuramine as substrate measured after 24 hrs. Also noted: scale not given: the % may be the effect or the level left.
In data set [11] the target is T2, Amine oxidase [flavin-containing] A. Description: Inhibition of recombinant human MAO-A assessed as enzyme activity pretreated with compound for 15 mins followed by addition of 50 uM kynuramine as substrate measured after 24 hrs. The arrangement: scale not given: the % may be the effect or the level left.

The structures appear in SMILES notation.

In general, IC50 refers to the concentration needed to halve the response being measured. Turning to `O=c1oc2cc(O)ccc2s1` [TIOXOLONE], the Ratio IC50 in data set [1] was 1. Besides, the IC50 stood at 9.57 µM in data set [2] and 9.77 µM in [3].
Take `O=C1OCc2cc(OCc3ccccc3)ccc21`: the IC50 was 0.062 µM in [2] and 26.7 µM in data set [3].
One may read the logP as the decadic logarithm of the partition coefficient of the neutral form, usually between octanol and water. Compound `O=c1oc2cc(OCc3ccccc3)ccc2s1` returned a logP in data set [4] of 3.8. The Ratio IC50 in data set [1] was 101. The values for the half-maximal inhibitory concentration (IC50) in [2] and in data set [3] were 0.051 µM and 5.14 µM, respectively.
What is called Ki is a measure of affinity in units of concentration, obtained from inhibition or displacement. Compound `O=c1oc2cc(OCc3ccc(Cl)cc3)ccc2s1` came in with a logP in data set [4] of 5.61. For the same compound, the inhibitory constant (Ki) in data set [5] stood at 0.0039 µM; in data set [6], 0.56 µM; in data set [7], 0.0035 µM; in [8], 0.36 µM. In addition, the figures for the Activity in [9], in data set [10] and in data set [11] were 93%, 39% and 73%, respectively. The Ratio IC50 in data set [1] was found to be 63. Moreover, the half-inhibitory concentration (IC50) in data set [2] came to 0.003 µM; in [3] it was 0.189 µM.
Consider `C#CCN(C)Cc1ccccc1` [PARGYLINE], for which, in [9], the Activity was 0.9%.

The values are drawn from ChEMBL document CHEMBL3763010, “Inhibition of monoamine oxidase by benzoxathiolone analogues” (Bioorg Med Chem Lett, 2016).
